Laboratory results taken from patent publication US10869924B2, “PD-L1 antagonist combination treatments” (MERCK PATENT GMBH, priority 2015, dated 2020).

Experiments:
MC38 tumors = assay: Flow cytometry of tumor-infiltrating lymphocytes from MC38 tumors after treatment (Example 3); type: in vivo, mouse; conditions: TILs isolated from MC38 tumors after treatment
Description: Antibodies used for cell surface or intracellular staining were purchased from BD Biosciences or eBioscience. They were rat anti-mouse CD4-PerCP-Cy5.5 (clone RM4-5, BD Biosciences), rat anti-mouse CD8a-APC-H7 (clone 53-6.7, BD Biosciences), rat anti-mouse CD25-PE-Cy7 (clone PC61, BD Biosciences), rat anti-mouse CD45-BV510 (clone 30-F11, BD Biosciences), rat anti-mouse CD90.2-FITC (clone 53-2.1, BD Biosciences), rat anti-mouse Eomes-PE (clone: Dan11mag, eBioscience), rat anti-mouse FoxP3-eFluor450 (clone FJK-16s, eBioscience), and rat anti-mouse NKp46-BV421 or -AF647 (clone 29A1.4, BD Biosciences). Live cells were separated from dead cells using LIVE/DEAD Fixable Blue Dead Cell Stain Kit (Invitrogen). […]
An aliquot of cells was pre-incubated with 10 μg/mL of mouse BD Fc Block (BD Biosciences) for 10 minutes before phenotyping mAbs were added to specifically stain immune cells. […] After removing unbound mAbs, cells were washed twice with FACS staining buffer, fixed in fixative buffer (PBS+2% FBS+1% paraformaldehyde), and stored at 4° C. in the dark until analyzed by flow cytometry. […] Flow cytometry data were acquired using LSR Fortessa (BD Biosciences) and analyzed using FlowJo (TreeStar Inc.).
Results were expressed as mean±SEM. […]
Tumor-infiltrating lymphocytes (TILs) were isolated from MC38 tumors after treatment and analyzed for markers associated with anti-tumor immune response. […]

[1] = in vivo; cited from earlier work
B16F10 melanoma = assay: Subcutaneous B16F10 melanoma model, anti-4-1BB and avelumab (Example 3); type: in vivo; conditions: anti-4-1BB 0.1 mg/mL, avelumab 1 mg/mL, 0.2 mL per mouse ip, 3 doses 3 to 4 days apart, C57BL/6 mice
Method: Six (6)- to 8-week old female C57BL/6 mice were purchased from the Jackson Laboratories. All animals were housed in a pathogen free vivarium facility at Rinat and experiments were conducted according to the protocols in accordance with the Institutional Animal Care and Use Committee (IACUC) guidelines.
The B16F10 melanoma cell line was purchased from American Type Culture Collection (ATCC). The MC38 colon carcinoma cell line was kindly provided by Dr. Antoni Ribas at University of California, Los Angeles, Calif. Cells were cultured in Dulbecco's Modified Eagle's Medium (DMEM) supplemented with 10% fetal bovine serum (FBS), 2 mM L-glutamine at 37° C. in 5% carbon dioxide (CO2), and IMPACT-tested for pathogens at Research Animal Diagnostic Laboratory (RADIL) (Columbia, Mo.). Pathogen-free cells growing in an exponential growth phase were harvested and used for tumor inoculation.
Therapeutic mouse anti-mouse 4-1BB mAb (mouse immunoglobulin G1 [mIgG1]), derived from the parental clone MAB9371 (R&D Systems), was prepared in-house. Avelumab was provided by Merck Serono. Isotype control mIgG1 (clone: MOPC-21) was purchased from BioXcell. Human IgG1 was prepared in-house. Anti-4-1BB and avelumab were diluted to concentrations of 0.1 mg/mL and 1 mg/mL, respectively, in phosphate buffered saline (PBS) (Life Technologies), and dosed at 0.2 mL per mouse intraperitoneally (ip) for 3 doses 3 to 4 days apart.
C57BL/6 mice were inoculated subcutaneously at the right flank with 0.2×10^6 B16F10 or 0.5×10^6 MC38 cells in 0.1 mL of serum-free DMEM. When tumors reached target size, mice were randomized into treatment groups. Treatment was started on the same day as randomization. Tumor size was measured twice weekly in 2 dimensions using a caliper, and the volume was expressed in cubic millimeters using the formula: V=0.5 L×W^2 where L is the longest diameter of the tumor and W is the diameter perpendicular to L. Body weight was recorded weekly.
Results were expressed as mean±SEM. Statistical analyses were performed using GraphPad Prism 6.0. One-way or 2-way ANOVA was applied to compare the statistical differences among multiple groups relative to the isotype control. P<0.05 was considered as significant difference.
Two murine models were used to evaluate the therapeutic efficacy of anti-4-1BB in combination with avelumab. In the B16F10 melanoma model, the average starting tumor size was 67 to 78 mm^3 (range 44 to 114 mm^3; n=7 animals per group) (Table 5). By Day 26 post tumor inoculation, the tumors for isotype, anti-4-1BB alone, and avelumab alone groups reached an average of 1206±397 mm^3, 1979±425 mm^3, and 2112±429 mm^3, respectively (Table 5). By contrast, dramatic tumor suppression (average of 341±146 mm^3) was observed when animals were administered with anti-4-1BB and avelumab concurrently (p<0.0001 vs single agent alone groups) (Table 5).

## Avelumab: fully human mAb of the IgG1 isotype that specifically targets and blocks PD-L1
MC38 tumors; FIG. 2
  ratio of CD8+ T cells/regulatory T cell (Treg): 2.5
MC38 tumors; average, FIG. 1
  T-cell frequency (of CD45+ cells) in tumors: 36%
[1]
  half-life: 72 to 120 h
B16F10 melanoma; Day 13 post tumor inoculation (starting tumor size)
  Tumor Measurements of Subcutaneous B16F10 Melanoma, Mean tumor volume: 78 mm^3
B16F10 melanoma; Day 17 post tumor inoculation
  Tumor Measurements of Subcutaneous B16F10 Melanoma, Mean tumor volume: 327 mm^3
B16F10 melanoma; Day 20 post tumor inoculation
  Tumor Measurements of Subcutaneous B16F10 Melanoma, Mean tumor volume: 654 mm^3
B16F10 melanoma; Day 24 post tumor inoculation
  Tumor Measurements of Subcutaneous B16F10 Melanoma, Mean tumor volume: 1304 mm^3
B16F10 melanoma; Day 26 post tumor inoculation
  Tumor Measurements of Subcutaneous B16F10 Melanoma, Mean tumor volume: 2112 mm^3
B16F10 melanoma; Day 26 post tumor inoculation, listed as avelumab
  Tumor Measurements of Subcutaneous B16F10 Melanoma, Mean tumor volume: 2112±429 mm^3
